System: Lactobacillus gasseri (FERM BP-11331)
Test: Growth-promoting effect on Lactobacillus gasseri in modified MRS medium (particle count)
Type: cell-based
Settings: Example 1, peptide 0.25 mg/mL, 37° C., 18 hours; for Particle concentration: inoculum 1.0×10^7 cells/mL; for Rate of increase: control without peptide = 100%
Description: Nitrogen sources in MRS medium were reduced to find a medium composition that achieves a total bacterial count of about 1.0×10^8 cell/mL to 1.0×10^9 cell/mL after culturing of each of the six bacterial strains Lactobacillus gasseri (FERNM BP-11331), Lactobacillus acidophilus (FERM BP-4981), Lactobacillus amylovorus (FERM BP-11255), Lactobacillus curvatus (NITE P-02033), Lactobacillus plantarum, and Lactobacillus brevis. This composition, named “modified MRS medium”, was used for the evaluation. Here, for the composition of the MRS medium, a composition described in a medium catalog provided by BD (Becton, Dickinson and Company) was used as a reference. The compositions of the MRS medium and the modified MRS medium are as follows. By chemical synthesis, 28 kinds of candidate peptides having the sequences shown below were provided. Each candidate peptide was added to the modified MRS medium at 0.25 mg/mL to provide a medium to be evaluated. The lactic acid bacterium Lactobacillus gasseri was inoculated at 1.0×10^7 cells/mL to the provided medium to be evaluated, and culture was carried out at a temperature of 37° C. for a culture period of 18 hours. The resulting culture was collected, and subjected to measurement of the particle concentration (particles/mL) as a characteristic value that can be used as an index of the bacterial cell growth, using a particle count analyzer (CDA-1000, Sysmex). The rate of increase (%) was calculated relative to a control value obtained using a medium to which no peptide was added, which was taken as 100%. Using the dipeptide LF (Leu-Phe) and an equimolar mixture of leucine (L) and phenylalanine (F), culture was carried out in the same manner as in Example 1, and the growth-promoting effects of the dipeptide and the amino acid mixture on the lactic acid bacterium were evaluated. Using a dipeptide (LF) as the peptide, the growth-promoting effect on a lactic acid bacterium was evaluated in the same manner except that the concentration of the dipeptide added was 0.1 mg/mL, 0.25 mg/mL, or 1.0 mg/mL.

Row | Substance | Particle concentration [mL⁻¹] | Rate of increase [%]
1 | HDDKHIIVD (listed as Saccharomyces cerevisiae) [His-Asp-Asp-Lys-His-Ile-Ile-Val-Asp] | 2.25e+08 | 114
2 | Ile-Phe [IF] | 2.01e+08 | 114
3 | Ile-Pro-Gln [IPQ] | 1.82e+08 | 99
4 | Ile-Pro-Gly-Ile (IPGI; listed as Saccharomyces cerevisiae) | 2.19e+08 | 119
5 | Ile-Pro-Ile-Gln (IPIQ; listed as Saccharomyces cerevisiae) | 2.11e+08 | 115
6 | Ile-Pro-Ile-Thr (IPIT; listed as Saccharomyces cerevisiae) |  | 121
7 | Ile-Pro-Thr [IPT] | 1.79e+08 | 98
8 | Ile-Val-Glu [IVE] | 1.81e+08 | 96
9 | Leu-Pro-Gln [LPQ] | 1.97e+08 | 107
10 | Leu-Pro-Leu-Gly (LPLG; listed as Saccharomyces cerevisiae) | 2.2e+08 | 120
11 | Leu-Pro-Thr [LPT] | 1.9e+08 | 104
12 | Leu-Pro-Val-Leu (LPVL; listed as Saccharomyces cerevisiae) | 2.07e+08 | 113
13 | Leu-Val-Glu [LVE] | 1.96e+08 | 104
14 | PNVLPETE (listed as Saccharomyces cerevisiae) [Pro-Asn-Val-Leu-Pro-Glu-Thr-Glu] | 2e+08 | 101
15 | Phe-Leu [FL] | 1.98e+08 | 112
16 | SEYPPLG (listed as Saccharomyces cerevisiae) [Ser-Glu-Tyr-Pro-Pro-Leu-Gly] | 2.36e+08 | 119
17 | Val-Pro-Ile [VPI] | 2.11e+08 | 112
18 | Val-Pro-Leu [VPL] | 2.01e+08 | 107
19 | Val-Pro-Val-Gly (VPVG; listed as Saccharomyces cerevisiae) | 1.76e+08 | 102
20 | WDESRFQ (listed as Saccharomyces cerevisiae) [Trp-Asp-Glu-Ser-Arg-Phe-Gln] | 2.38e+08 | 120
